The kinetic solubility is solubility judged after dilution from a stock solution rather than from solid.

Each structure is given as a SMILES string. Converted amounts (≈) assume the structure as drawn.

The conditions of this data set: buffer; pH 7.4; 200.0 µM.
Turning to `CCOC(=O)C1CCCN(CC(=O)Nc2cc(C)cc(C)c2)C1` (stereo not drawn), the kinetic solubility worked out at 29.3 µg/mL (≈ 92 µM).
`Cc1ccc(NC(=O)CN(C)C(=O)c2ccc(Br)o2)cc1` displayed a solubility (kinetic) of 14.1 µg/mL (≈ 40.1 µM).
As for `Cc1cc(SCc2cccc(C(F)(F)F)c2)nc(=O)[nH]1`, the figure is 26.9 µg/mL (≈ 89.6 µM); as for `O=C1CN(S(=O)(=O)c2ccc(F)cc2)c2ccccc2N1`, over 45.9 µg/mL.
The compound `O=C(c1cc2ccccc2o1)N1CCN(c2ncccn2)CC1` displayed a solubility (kinetic) of over 46.3 µg/mL.
As for `O=C1CS/C(=N\NC(=O)c2ccccc2)N1`, the figure is over 35.3 µg/mL.
Turning to `CC(C)C1Cc2[nH]c(=O)c(C#N)cc2CO1` (stereo not drawn), the solubility (kinetic) was over 32.7 µg/mL.
Take `O=C1CCC(=O)N1OCCOc1ccc(Cl)c2ccccc12`: the solubility (kinetic) was determined as 5.3 µg/mL (≈ 16.6 µM).
As for `COc1ccc(OC(=O)C(C)N2C(=O)c3ccccc3C2=O)cc1` (stereo not drawn), the figure is 33.3 µg/mL (≈ 102 µM); as for `Cc1nc(SCC(=O)N2CCCCCC2)[nH]c(=O)c1C`, over 44.3 µg/mL.
`O=C(CN1C(=O)NC(Cc2c[nH]c3ccccc23)C1=O)NC1CC1` (stereo not drawn) had a kinetic solubility of over 49 µg/mL.
In the case of `O=C(NCCc1ccccc1)c1cnc2n(c1=O)CCS2` it was 45 µg/mL (≈ 149 µM).
In turn, `N#Cc1sc2nccc(Nc3ccccc3)c2c1N` registered a solubility (kinetic) of under 0.1 µg/mL.
The compound `C=CCNC(=S)Nc1ccc(C)cc1[N+](=O)[O-]` came in with a kinetic solubility of over 37.7 µg/mL.
In the case of `O=[N+]([O-])c1cc(C(F)(F)F)cc([N+](=O)[O-])c1N1CCCNCC1` it was 37.9 µg/mL (≈ 113 µM); in that of `O=C(NNC1CC(=O)N(c2ccc(Cl)cc2)C1=O)c1ccco1` (stereo not drawn), over 50.1 µg/mL.
In the case of `CC(Cc1c[nH]c2ccccc12)NC(N)=O` (stereo not drawn) it was over 32.6 µg/mL; in that of `Cn1c(=O)[nH]c2c(Cl)nccc21`, over 27.5 µg/mL; in that of `Cc1cccc(N2CC(C(=O)Nc3nccs3)CC2=O)c1C` (stereo not drawn), 42 µg/mL (≈ 133 µM).
For `O=C(CC(=O)Nc1ccccc1F)Nc1ccccc1F`, the kinetic solubility was over 43.5 µg/mL.
In the case of `Cc1nc([N+](=O)[O-])cn1CC(O)c1ccc(-c2ccccc2)cc1` (stereo not drawn) it was 17.1 µg/mL (≈ 52.9 µM).
As for `CC1(C)CC(NC(=O)c2cccc(Cl)c2)CC(C)(C)N1`, the figure is over 44.2 µg/mL; as for `CCCc1ccc(OCc2ccc(C(=O)N3CCCC3)o2)cc1`, 5.9 µg/mL (≈ 18.8 µM).
In the case of `O=C(NCCN1CCOCC1)c1cc(-c2ccc(F)cc2)nc2ccccc12` it was 23.8 µg/mL (≈ 62.7 µM).
As for `NC(=O)NC(=O)COC(=O)CC12CC3CC(CC(C3)C1)C2`, the solubility (kinetic) stood at 29.2 µg/mL (≈ 99.2 µM).
As for `CCOc1ccc(NC(=O)COc2ccc3c(c2)OCO3)cc1`, the figure is 5.7 µg/mL (≈ 18.1 µM); as for `Cc1ccccc1OCCCCCCN1CCNCC1.O=C(O)C(=O)O`, 49.5 µg/mL; as for `Cc1ccccc1Cn1cnc2c(oc3ccccc32)c1=O`, 0.9 µg/mL (≈ 3.1 µM).
As for `O=C(COC(=O)C1=COCCO1)Nc1ccc(F)c(F)c1`, the figure is 4.6 µg/mL (≈ 15.4 µM); as for `COCCNC(=O)/C(C#N)=C/c1ccccc1Br`, over 46.4 µg/mL.
As to `CCOC(=O)C1(CCOC)CCN(Cc2ccncc2)CC1`, the kinetic solubility was over 46 µg/mL.
As for `O=C1Nc2ccc([N+](=O)[O-])cc2C1=Nc1cccc(CO)c1`, the figure is over 44.6 µg/mL; as for `COc1ccc(C(C)NS(=O)(=O)Cc2ccccc2)cc1` (stereo not drawn), 43 µg/mL (≈ 141 µM).
`COc1ccc(NC(=O)CN2CCN(C(C)=O)CC2)cc1S(=O)(=O)N1CCOCC1` returned a kinetic solubility of over 66.1 µg/mL.
As to `CC(C)CC1(C)NC(=O)N(CC(=O)Nc2ccc(F)c(F)c2F)C1=O` (stereo not drawn), the kinetic solubility is 48.6 µg/mL (≈ 136 µM).
`Oc1ccc(/C=N/NC(=S)N2CCOCC2)cc1` returned a solubility (kinetic) of over 39.8 µg/mL.
Consider `N#C/C(=C\c1ccc(F)cc1)C(=O)Nc1ccccn1`, for which the kinetic solubility was 19 µg/mL (≈ 71.1 µM).
`COc1ccc(NC(=S)NCc2cccs2)cc1OC` had a solubility (kinetic) of 19.6 µg/mL (≈ 63.5 µM).
As for `CCCC1C(=O)N(Cc2ccccc2)C(=O)CC1C` (stereo not drawn), the figure is 31.1 µg/mL (≈ 120 µM); as for `CN(C)c1nc(N)c([N+](=O)[O-])c(N2CCCCCC2)n1`, 39.7 µg/mL (≈ 142 µM); as for `O=C(COc1ccc(Nc2ccccc2)cc1)Nc1ccncc1`, 9.2 µg/mL (≈ 28.8 µM).
In the case of `c1ccc2c(c1)NCC1CCCN21` (stereo not drawn) it was 12.7 µg/mL (≈ 72.9 µM); in that of `O=C(CC(Cc1ccccc1)C(=O)O)Nc1ccccc1` (stereo not drawn), over 42.5 µg/mL.
In the case of `Cc1c(C=O)c2cc(OCc3ccccc3)ccc2n1C` it was under 0.6 µg/mL; in that of `COc1ccc2[nH]c(C(=O)NCc3ccccc3)c(C)c2c1.Cl`, 2.7 µg/mL.
For the compound `O=C(c1ccc2ccccc2c1)N1CCCC1`, the solubility (kinetic) was 19.7 µg/mL (≈ 87.4 µM). Compared with the last compound, the solubility kinetic is about 7.3-fold higher.
`CCC(C)Nc1nc2c(c(=O)[nH]c(=O)n2C)n1CCCc1ccccc1` (stereo not drawn): the solubility (kinetic) was 36.9 µg/mL (≈ 104 µM). Compared with the last compound, the solubility kinetic is about 1.9-fold higher.
In the case of `O=C(CSc1ccc(-c2ccc(F)cc2)nn1)N1CCOCC1` it was over 50 µg/mL; in that of `Cc1cc(NC(=O)CSc2nnc(C)n2-c2ccccc2C)no1`, over 51.5 µg/mL; in that of `Fc1ccc(SCCc2cccc[nH+]2)cc1.O=P([O-])(O)O`, 9.7 µg/mL.
As for `O=C(O)CSc1cn(Cc2ccccc2)c2ccccc12`, the figure is over 44.6 µg/mL.
Take `O=C(COC(=O)C1CC1)NC(=O)NCc1ccccc1`: the solubility (kinetic) is over 41.4 µg/mL.
On to `CCOC(=O)CNC(=O)c1ccc(Br)s1`, for which the kinetic solubility was over 43.8 µg/mL.
